Consider three molecules from patent US20190159450A1, “PYRIDINE-BASED COMPOUND INCLUDING ISOXAZOLINE RING AND USE THEREOF AS HERBICIDE” (MOGHU RESEARCH CENTER LTD., priority 2016, published 2019).

What all share (type): in vivo
Data set [1] relates to maize. The experiment in a line: Herbicidal activity test, pre-weeds emergence treatment (crop damage). As to conditions: Table 4, 200 g/ha, assessed 2 to 3 weeks after spraying, scale 0-10 (0: no effect, 10: complete death). The essentials: (§1)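 Pre-emergence pot test in 1:1 sandy loam/mixed soil; weeds and crops sown separately, sprayed one day after watering at 200 g/ha in acetone/0.1% Tween 20 (1:1), 1000 L/ha spray volume. Greenhouse at 25–30 °C day, 15–25 °C night; efficacy and crop injury scored 0–10 (10 = complete death) after 2–3 weeks.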

The subject of data set [2] is rice. The data set is described as above. The note with it: Table 4, 200 g/ha, assessed 2 to 3 weeks after spraying, scale 0-10 (0: no effect, 10: complete death). The essentials: as §1
The subject of data set [3] is wheat. Described as above. As to conditions: Table 4, 200 g/ha, assessed 2 to 3 weeks after spraying, scale 0-10 (0: no effect, 10: complete death). The essentials:
as §1

Data set [4] relates to Abutilon theophrasti Medicus. The data set is described as follows: Herbicidal activity test, pre-weeds emergence treatment. The note with it: Table 4, 200 g/ha, assessed 2 to 3 weeks after spraying, scale 0-10 (0: no effect, 10: complete death). The essentials:
as §1

Data set [5] has as its system Aeschynomene indica. The description is as above. The note with it: Table 4, 200 g/ha, assessed 2 to 3 weeks after spraying, scale 0-10 (0: no effect, 10: complete death). An outline of the steps:
as §1

For data set [6], the system named is Quamoclit pennata. The description is as above. The note with it: Table 4, 200 g/ha, assessed 2 to 3 weeks after spraying, scale 0-10 (0: no effect, 10: complete death). The essentials:
as §1

For data set [7], the system named is Xanthium strumarium. Described as above. The note with it: Table 4, 200 g/ha, assessed 2 to 3 weeks after spraying, scale 0-10 (0: no effect, 10: complete death). An outline of the steps: as §1
For data set [8], the system named is maize. The data set is described as follows: Herbicidal activity test, post-weeds emergence treatment (crop damage). As to conditions: spray amount 200 g/ha for crops, assessed after 2 to 3 weeks, 0: no effect, 10: complete death, Table 6. An outline of the steps: (§2)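 Crops and weeds were grown in 1:1 sandy loam/mixed soil to roughly third-leaf stage (about 2 weeks), then track-sprayed at 1000 L/ha with compound in acetone plus an equal volume of 0.1% Tween 20 at 200 g/ha (one weed test used 50 g/ha). Injury was scored 0–10 after 2–3 weeks.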

For data set [9], the system named is rice. Described as above. As to conditions: spray amount 200 g/ha for crops, assessed after 2 to 3 weeks, 0: no effect, 10: complete death, Table 6. The essentials: as §2
Data set [10] deals with wheat. Described as above. As to conditions: spray amount 200 g/ha for crops, assessed after 2 to 3 weeks, 0: no effect, 10: complete death, Table 6. An outline of the steps:
as §2

The subject of data set [11] is Abutilon theophrasti Medicus. The data set is described as follows: Herbicidal activity test, post-weeds emergence treatment. The note with it: spray amount 50 g/ha for weeds, assessed after 2 to 3 weeks, 0: no effect, 10: complete death, Table 6. The essentials: as §2
The subject of data set [12] is Aeschynomene indica. Described as above. The note with it: spray amount 50 g/ha for weeds, assessed after 2 to 3 weeks, 0: no effect, 10: complete death, Table 6. The essentials: as §2
In data set [13] the test system is Quamoclit pennata. The description is as above. As to conditions: spray amount 50 g/ha for weeds, assessed after 2 to 3 weeks, 0: no effect, 10: complete death, Table 6. An outline of the steps: as §2
The test system of data set [14] is Xanthium strumarium. The description is as above. The note with it: spray amount 50 g/ha for weeds, assessed after 2 to 3 weeks, 0: no effect, 10: complete death, Table 6. An outline of the steps:
as §2

Regarding `Nc1cc(C2CC(Br)=NO2)nc(C(=O)OCc2ccc(C(F)(F)F)cc2)c1Cl` (stereo not drawn) [Compound 88, 4-trifluoromethylbenzyl 4-amino-6-(3-bromo-4,5-dihydroisoxazol-5-yl)-3-chloropicolinate], in the data set on maize [1], the “PRE ZEAMX (maize), damage score” value is 0. The “PRE ORYSA (rice), damage score” value in the data set with rice [2] is given as 0. Also, the “PRE TRZAW (wheat), damage score” value in the data set on wheat [3] amounted to 0. Further, the “PRE ABUTH (Abutilon theophrasti Medicus), efficacy score” value (“PRE ABUTH” for short) in data set [4] stood at 5. For the same molecule, the “PRE AESIN (Aeschynomene indica), efficacy score” value (“PRE AESIN (Aeschynomene indica)” below) with Aeschynomene indica [5] is 10. For the same molecule, the “PRE IPOAN (Quamoclit pennata), efficacy score” value (shortened to “PRE IPOAN (Quamoclit pennata)”) with Quamoclit pennata [6] turned out to be 3. The “PRE XANST (Xanthium strumarium), efficacy score” value (shortened to “PRE XANST (Xanthium strumarium)”) in the data set on Xanthium strumarium [7] came out at 9. Also, in the data set on maize [8], the “ZEAMX (maize) damage, scale of 0-10” value is listed as 0. The “ORYSA (rice) damage, scale of 0-10” value in the data set on rice [9] amounted to 0. For the same molecule, the “TRZAW (wheat) damage, scale of 0-10” value with wheat [10] is 0. Also, the “ABUTH (Abutilon theophrasti Medicus) herbicidal efficacy, scale of 0-10” value (“ABUTH … of 0-10” for short) in data set [11] came out at 5. Further, in the data set on Aeschynomene indica [12], the “AESIN (Aeschynomene indica) herbicidal efficacy, scale of 0-10” value (“AESIN … of 0-10” below) amounted to 8. Also, the “IPOAN (Quamoclit pennata) herbicidal efficacy, scale of 0-10” value (“IPOAN … of 0-10” for short) with Quamoclit pennata [13] came to 6. Moreover, the “XANST (Xanthium strumarium) herbicidal efficacy, scale of 0-10” value (from here on “XANST … of 0-10”) in the data set on Xanthium strumarium [14] came to 10.

On to `COC(=O)c1nc(C2CC(Br)=NO2)cc(N)c1Cl` (stereo not drawn) [Compound 33, methyl 4-amino-3-chloro-6-(3-bromo-4,5-dihydroisoxazol-5-yl)picolinate], for which, in the data set with maize [1], the “PRE ZEAMX (maize), damage score” value is recorded as 2. In addition, in the data set with rice [2], the “PRE ORYSA (rice), damage score” value amounted to 0. Also, the “PRE TRZAW (wheat), damage score” value with wheat [3] turned out to be 0. Further, the “PRE ABUTH” value in [4] was 6. In addition, the “PRE AESIN (Aeschynomene indica)” value with Aeschynomene indica [5] turned out to be 10. The “PRE IPOAN (Quamoclit pennata)” value in the data set with Quamoclit pennata [6] is 6. Also, the “PRE XANST (Xanthium strumarium)” value in the data set with Xanthium strumarium [7] amounted to 10. Moreover, in the data set with maize [8], the “ZEAMX (maize) damage, scale of 0-10” value is 0. The “ORYSA (rice) damage, scale of 0-10” value in the data set on rice [9] amounted to 0. For the same molecule, the “TRZAW (wheat) damage, scale of 0-10” value in the data set on wheat [10] worked out at 0. Further, the “ABUTH … of 0-10” value in data set [11] came to 7. Further, the “AESIN … of 0-10” value with Aeschynomene indica [12] was 9. In addition, in the data set with Quamoclit pennata [13], the “IPOAN … of 0-10” value worked out at 5. The “XANST … of 0-10” value in the data set with Xanthium strumarium [14] was found to be 10.

`Nc1cc(C2CC(Br)=NO2)nc(C(=O)Oc2ccccc2)c1Cl` (stereo not drawn) [Compound 85, phenyl 4-amino-3-chloro-6-(3-bromo-4,5-dihydroisoxazol-5-yl)picolinate]: the “PRE ZEAMX (maize), damage score” value in the data set on maize [1] came out at 0. Also, in the data set with rice [2], the “PRE ORYSA (rice), damage score” value was 0. Also, in the data set on wheat [3], the “PRE TRZAW (wheat), damage score” value turned out to be 0. For the same molecule, the “PRE ABUTH” value in data set [4] was 8. The “PRE AESIN (Aeschynomene indica)” value in the data set on Aeschynomene indica [5] is reported as 10. For the same molecule, the “PRE IPOAN (Quamoclit pennata)” value with Quamoclit pennata [6] is listed as 6. Moreover, in the data set on Xanthium strumarium [7], the “PRE XANST (Xanthium strumarium)” value is on record as 10. The “ZEAMX (maize) damage, scale of 0-10” value in the data set with maize [8] is 0. Further, in the data set on rice [9], the “ORYSA (rice) damage, scale of 0-10” value amounted to 0. The “TRZAW (wheat) damage, scale of 0-10” value in the data set on wheat [10] turned out to be 0. The “ABUTH … of 0-10” value in data set [11] came to 5. For the same molecule, the “AESIN … of 0-10” value in the data set with Aeschynomene indica [12] is on record as 9. Also, in the data set on Quamoclit pennata [13], the “IPOAN … of 0-10” value is recorded as 5. In the data set with Xanthium strumarium [14], the “XANST … of 0-10” value was found to be 10.
